Source: article PMC5613068, “Resolving distinct molecular origins for copper effects on PAI-1” (Journal of Biological Inorganic Chemistry, 2017)
Where two headings read alike, the source gives them in different places.

Tests used:
PAI-1 [1] = target: PAI-1; set-up: method as in PMID 12067733, PMID 10764685; details: read-out: K d of VN binding to PAI-1; cited from earlier work
[2] = target: vitronectin (Homo sapiens) (UniProt P04004); details: cited from earlier work
[3] = target: vitronectin SMB domain (Homo sapiens) (UniProt P04004); details: cited from earlier work
[4] = Metal ion titration gel assay (copper sensitivity of PAI-1 latency, PAI-1/tPA complex densitometry); type: biochemical; details: 4 µM PAI-1, 30 min, 37 °C, 50 mM MOPS, 100 mM (NH4)2SO4 pH 7.4, total Cu(II) 5-1000 µM, non-equilibrium
Method: To determine the Cu(II) concentrations required to induce accelerated PAI-1 latency, we used a gel-based metal ion titration assay. Serial dilutions of CuSO4 were prepared, resulting in final Cu(II) concentrations ranging from 5 to 1000 μM. […] Incubation with metal was initiated by adding PAI-1 at a final concentration of 4 μM and maintaining the mixture at 37 °C in 50 mM MOPS, 100 mM (NH4)2SO4 pH 7.4 for 30 min. After the 30-min incubation, PAI-1 was mixed in a 1:1 ratio with single-chain tPA (Molecular Innovations). Three control samples (PAI-1, tPA, and PAI-1/tPA) were also tested in which copper is not included. Non-reducing SDS-PAGE dye was added to each sample, followed by boiling for 10 min prior to loading on the gel. The free/latent PAI-1, free tPA, and PAI-1/tPA complex in each sample were separated and visualized by SDS-PAGE electrophoresis in a 4–12% gradient gel (Invitrogen). Samples were subjected to electrophoresis at 150 V for 75 min. SDS-PAGE gels were stained with Coomassie blue dye overnight, followed by three destaining steps of 90 min in deionized water containing 30% methanol and 7.5% glacial acetic acid. Gel pictures were captured using a ChemiDoc XRS molecular imager (Biorad), and gel band densitometry of the PAI-1/tPA complex bands was performed using Imagelab (Biorad). […]

[5] = Isothermal titration calorimetry of Cu(II) binding to PAI-1; details: 10 °C; for Kd / K obs: one-site model; for Kd: K d = 1/K obs
Method: Isothermal titration calorimetry (ITC) was used to determine the thermodynamic parameters associated with Cu(II) interactions with PAI-1. Active and latent forms of wild-type and variants of PAI-1 were dialyzed into 100 mM MOPS, 250 mM (NH4)2SO4 at 10 °C for 2 h. Because of the relative instability of the H2AH3A variant of PAI-1, our studies on H2AH3A PAI-1 utilized a variant that contained an additional mutation, W175F. […] Residue 175 is not proximal to the N terminus and is not involved in metal ion coordination or its subsequent effects on PAI-1 stability. Copper solutions were prepared by diluting CuSO4 into the matched dialysate buffer. The copper stock concentration was verified using atomic absorbance spectroscopy, and the pH corrected to 7.4 at 10 °C using NaOH. Twenty micromolar PAI-1 (2.2 mL total volume) and copper solution (4 mL) were degassed under vacuum for 10 min at 5 °C prior to loading into the (Malvern) MicroCal VP-ITC. The PAI-1 solution was loaded into the ITC cell (1.394 mL), and the copper solution was loaded into the ITC syringe. The reference and experimental ITC cells were equilibrated to 10 °C prior to the start of the experiment. After a preliminary injection of 2 µL, each additional injection consisted of a 4 µL injection at 120 or 240 s intervals. Experiments were performed at least in duplicate. Control experiments measuring dilution heats were performed in which the copper solution was injected into buffer. The data were baseline corrected using NITPIC software (University of Texas, Southwestern), and fit to either a single-site or two-site non-symmetric binding model in SEDPHAT (National Institutes of Health). The data and fits were represented using GUSSI software (University of Texas, Southwestern).

tPA = tPA (Homo sapiens, UniProt P00750); test: PAI-1 activity measurement (inhibition of tPA at varying molar ratios); type: biochemical; details: purified active protein
Method: The activity of wild-type and variant forms of PAI-1 was measured using standard assays. PAI-1 was mixed with tPA at varying molar ratios ranging from 0.25 to 4 (PAI-1:tPA). The inhibitory capacity of PAI-1 was measured in a gel-based assay, wherein the PAI-1/tPA complex at each molar ratio was monitored and quantified by densitometry. PAI-1 inhibition of proteases was also measured in a kinetic assay in which the tPA-substrate (Spectrozyme tPA, Sekisui Diagnostics) was added to the mixture containing PAI-1 and tPA. Cleavage of the p-nitroanaline group of Spectrozyme tPA was detected by absorbance at 405 nm, allowing for the measurement of tPA activity over time at each molar ratio of PAI-1:tPA. […] Latent PAI-1 was generated by dilution in buffer (50 mM sodium phosphate, 300 mM NaCl, 1 mM EDTA, pH 6.25) to a 5 μM concentration, and incubation at 37 °C with light stirring for 6 days. The aforementioned activity measurements were performed to confirm that no active PAI-1 remained in the mixture.

PAI-1 [6] = target: PAI-1; set-up: method as in PMID 21280128; details: read-out: K d of copper binding to PAI-1; cited from earlier work

PAI-1 (from UniProt P05121), sequence (P05121 24-402): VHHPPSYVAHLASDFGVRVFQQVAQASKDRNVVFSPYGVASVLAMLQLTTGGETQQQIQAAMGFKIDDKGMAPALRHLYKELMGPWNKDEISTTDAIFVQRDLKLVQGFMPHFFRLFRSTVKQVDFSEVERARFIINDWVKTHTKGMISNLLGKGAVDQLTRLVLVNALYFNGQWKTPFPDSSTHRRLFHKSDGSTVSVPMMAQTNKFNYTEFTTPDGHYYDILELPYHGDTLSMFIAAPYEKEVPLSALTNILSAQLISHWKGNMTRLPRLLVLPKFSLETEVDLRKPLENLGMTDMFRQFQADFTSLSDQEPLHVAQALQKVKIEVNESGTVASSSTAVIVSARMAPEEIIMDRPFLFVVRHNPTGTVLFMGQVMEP
vitronectin (Homo sapiens), sequence (P04004 399-478): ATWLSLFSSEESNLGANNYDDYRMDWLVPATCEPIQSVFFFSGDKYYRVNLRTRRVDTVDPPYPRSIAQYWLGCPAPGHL
tPA, sequence (P00750 311-562 limits assumed): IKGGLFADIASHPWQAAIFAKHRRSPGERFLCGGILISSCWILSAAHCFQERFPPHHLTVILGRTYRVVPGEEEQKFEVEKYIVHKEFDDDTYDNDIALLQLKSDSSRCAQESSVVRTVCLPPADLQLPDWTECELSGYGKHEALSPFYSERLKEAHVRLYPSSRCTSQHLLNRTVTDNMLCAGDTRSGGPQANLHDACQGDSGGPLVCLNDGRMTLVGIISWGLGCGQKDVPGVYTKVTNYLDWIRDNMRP
vitronectin SMB domain (Homo sapiens), sequence (P04004 17-66): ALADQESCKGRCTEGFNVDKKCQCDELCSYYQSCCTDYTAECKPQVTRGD

VN: Vitronectin, glycoprotein that binds and stabilizes active PAI-1
Kd (PAI-1 [1]): ~0.1 nM

PAI-1 (from UniProt P05121)
Kd [2]: 0.1 nM
Kd [3]: 1 nM

plasminogen activator inhibitor-1 [Wild-type]
Copper sensitivity (midpoint Cu(II) concentration at which 50% PAI-1/tPA complex is observed) [4]: 150 µM
Copper sensitivity (midpoint Cu(II) concentration at which 50% PAI-1/tPA complex is observed) ([4]; listed as wild-type PAI-1): approximately 150 µM
Kd ([5]; [Cu(II)] 650 µM): 13 nM
Kd ([5]; [Cu(II)] 700 µM): 19 nM
K obs ([5]; [Cu(II)] 750 µM): 4.8 (±5.5) × 10^7 M^−1
Kd ([5]; [Cu(II)] 750 µM): 20 nM
K obs ([5]; [Cu(II)] 800 µM): 4.1 (±2.8) × 10^7 M^−1
Kd ([5]; [Cu(II)] 800 µM): 24 nM
average K obs ([5]; single-site model, average of replicate data): 5.4e+07 M⁻¹
molar equivalents of PAI-1 that fully inhibit tPA (tPA): 1.25 molar equivalents

O=S(=O)([O-])[O-].[Cu+2] [Copper, CuSO4]
Kd (PAI-1 [6]): ~90 nM
